Assay results reported in patent publication US5643954A, “Method of preventing and alleviating stress in a healthy mammal in need thereof” (priority 1993, dated 1997).
Where two headings read alike, the source gives them in different places.

Tests used:
[1] = orientation motive activity of mice, automated registration of movements; assay type: in vivo, mice (male); details: for Number of movements in 10 min in register: M ± m
Procedure: Experiments were conducted in vivo on male mice weighing 18-22 g and male rats weighing 200-250 g, as well as in vitro on the isolated organs: a guinea pig's ileum and a rat's seminal effervesces.

[2] = system: Corazol convulsions; test: testings with Corazolin (Corazol), mice; assay type: in vivo; details: for Corazol latent period / Corazol life-time: M ± m
[3] = assay type: in vivo; details: in vivo
[4] = system: bioelectric activity of rats' brain; test: spontaneous bioelectrical activity of rats' brain (EEG, implanted electrodes); assay type: in vivo; set-up: Amplitude, slow activ. / Amplitude, fast activ.: unit not given here; details: for Amplitude, fast activ. / Amplitude, slow activ.: M ± m
[5] = Procedure: The examination of attention was performed by using Schulte test which provides for a square chart produced before a patient (tested) that is divided into 49 squares containing confusedly arranged red and black numbers (24 and 25, respectively). The numbers are sought in the chart in strict order, say, red ones in increasing order and black ones in decreasing order, and along with this, the time is fixed for execution of the entire assignment, the time of search of each and every figure and the number of mistakes. The test makes it possible to assess attention and reveal the persons having enhanced emotional responses.
To study the state of short-lived memory, use was made of a test based on reproduction of 10 two-digit numbers shown on the screen for 20 sec. […] Sensomotor reactions were evaluated with the aid of a visual-motor reaction (differentiation of optical signals from 20 applications).

[6] = system: strychnine effects; details: for Threshold doses Strychnine 0,01% solution, death of animal / Threshold doses Strychnine 0,01% solution, start of twitch: M ± m
[7] = intragastric, 20 min before Corazol, in words
[8] = after taking the preparation, M ± m
[9] = 200 mg/kg single administration

aminoacetic acid [claimed preparation]
Number of movements in 10 min in register ([1]; 40 mg/kg intraperitoneally): 324 ± 56
Number of movements in 10 min in register ([1]; 80 mg/kg intraperitoneally): 398 ± 48
Number of movements in 10 min in register ([1]; 200 mg/kg intraperitoneally): 275 ± 23
motor activity ([1]; in words): reduction of animals' motor activity
Corazol tonico-extensor phase ([2]; 2 mg/kg intragastric): 100 min
Corazol latent period ([2]; 2 mg/kg intragastric): 39.0 ± 0.6 s
Corazol life-time ([2]; 2 mg/kg intragastric): 2.5 ± 0.7 min
Corazol tonico-extensor phase ([2]; 20 mg/kg intragastric): 80 min
Corazol latent period ([2]; 20 mg/kg intragastric): 41.0 ± 0.3 s
Corazol life-time ([2]; 20 mg/kg intragastric): 2.8 ± 0.8 min
Corazol tonico-extensor phase ([2]; 40 mg/kg intragastric): 70 min
Corazol latent period ([2]; 40 mg/kg intragastric): 49.0 ± 0.7 s
Corazol life-time ([2]; 40 mg/kg intragastric): 2.4 ± 0.7 min
Corazol tonico-extensor phase ([2]; 80 mg/kg intragastric): 70 min
Corazol latent period ([2]; 80 mg/kg intragastric): 45.0 ± 0.9 s
Corazol life-time ([2]; 80 mg/kg intragastric): 3.1 ± 0.9 min
Corazol tonico-extensor phase ([2]; 200 mg/kg intragastric): 70 min
Corazol latent period ([2]; 200 mg/kg intragastric): 42.5 ± 0.7 s
Corazol life-time ([2]; 200 mg/kg intragastric): 2.4 ± 0.5 min
latent period of Corazol convulsions [2, 7]: increased latent period of Corazol convulsions
tonico-extensor component of a twitch paroxysm [2, 7]: some depression of the tonico-extensor component of a twitch paroxysm
sedative and synchronizing effect on EEG [3]: displaying at the same time a sedative and synchronizing effect on EEG
Amplitude, fast activ. ([4]; 2 mg/kg): 325 ± 24
Amplitude, slow activ. ([4]; 2 mg/kg): 315 ± 14
Maximal effect appearance time from the start of experiment ([4]; 40 mg/kg): 70 min
Nature of effect ([4]; 40 mg/kg): episodic
Nature of effect, episodes ([4]; 40 mg/kg): 1-2 episodes per hr
synchronizing effect on encephalogram ([4]; 40 mg/kg intraperitoneally): tends to call for a synchronizing effect on an encephalogram
Amplitude, fast activ. ([4]; 40 mg/kg): 243 ± 10
Amplitude, slow activ. ([4]; 40 mg/kg): 380 ± 21
cases with increased volume of short-lived memory ([5]; 2 mg/kg one time): 58.9%
cases with subjective and objective improvement of general state ([5]; 2 mg/kg one time): 87.2%
students with reduction of latent period of visual-motor reaction and number of differentiation disruptions ([5]; 2 mg/kg one time): 56.4%
tested whose short-lived memory did not worsen and remained on the initial level ([5]; 2 mg/kg one time): 25.7%
increase of volume of short-lived memory ([5]; 2 mg/kg one time, average): 25%
attention ([5]; 2 mg/kg one time, in words): reducing the attention switching time and the number of mistakes made
Attention switching number of errors [5, 8]: 3.20 ± 0.39
Attention switching time [5, 8]: 95.39 ± 6.11 s
Shortlived memory [5, 8]: 46.92 ± 2.58 nom. units
Visual-motor reaction differentiation disruption [5, 8]: 0.46 ± 0.13 nominal units
Visual-motor reaction latent period [5, 8]: 0.51 ± 0.01 min
Threshold doses Strychnine 0,01% solution, death of animal ([6]; 2 mg/kg single administration): 0.21 ± 0.007 mL
Threshold doses Strychnine 0,01% solution, start of twitch ([6]; 2 mg/kg single administration): 0.17 ± 0.008 mL
Threshold doses Strychnine 0,01% solution, death of animal ([6]; 40 mg/kg single administration): 0.21 ± 0.005 mL
Threshold doses Strychnine 0,01% solution, start of twitch ([6]; 40 mg/kg single administration): 0.18 ± 0.007 mL
Threshold doses Strychnine 0,01% solution, death of animal ([6]; 80 mg/kg single administration): 0.18 ± 0.006 mL
Threshold doses Strychnine 0,01% solution, start of twitch ([6]; 80 mg/kg single administration): 0.17 ± 0.005 mL
Threshold doses Strychnine 0,01% solution, death of animal [6, 9]: 0.19 ± 0.006 mL
Threshold doses Strychnine 0,01% solution, start of twitch [6, 9]: 0.15 ± 0.008 mL
influence on strychnine effects ([6]; in words): does not practically influence said strychnine effects
